# According to US20130039928A1, “COMPOSITIONS AND METHODS FOR REVERSING CORTICOSTEROID RESISTANCE OR TREATING RESPIRATORY INFECTIONS” (priority 2010, published 2013):
# What was measured:
# IL-8 gene = settings: sulforaphane treatment with DEX
# Description: (§1) For inducing corticosteroid resistance, PMs were exposed to cigarette smoke condensate (CSC, 100 μg/ml; Murty Pharmaceuticals, Lexington, Ky.) for 16 h. Exposure to S-nitrosoglutathione (GSNO, 10 μM) was limited to 4 h. […] For assessing corticosteroid responsiveness, macrophages were incubated with dexamethasone (1 μM, Sigma) for 1 h followed by LPS (100 ng/ml, Sigma) for additional 4 h.
# Total RNA was extracted from the cells by lysis and specific binding to a silica membrance (Qiagen RNeasy kit, Qiagen, Valencia, Calif.), and qRT-PCR was performed by using primers and probe sets for human IL-8, NQO1, GCLM, and iNOS (Assay-on-Demand, Applied Biosystems, Foster City, Calif.). A real-time fluorescent PCR system (ABI 7000 Taqman system, Applied Biosystems) was used to perform these assays. β-actin was used as the normalization control.
# GSH = settings: COPD alveolar macrophages, 5 μM for 16 h
# Description: as §1
# (§2) HDAC activity was measured using a fluorescent derivative of ε-acetyl-lysine from Enzo life sciences (Farmingdale, N.Y.) according to the manufacturer's recommendations. HDAC2 was immunoprecipitated for analysis of enzymatic activity.
# HDAC = settings: COPD alveolar macrophages, versus vehicle
# Description: as §1, §2
# IL-8 = test: Corticosteroid responsiveness: basal and LPS-induced IL-8 secretion by alveolar macrophages; type: cell-based, human
# Description: as §1
# For human IL-8 and mouse IL-6 and MCP-1 proteins, Quantikine ELISA kits from R&D systems (Minneapolis, Minn.) were used according to the manufacturer's instructions.
# [1] = test system: nontypeable Haemophilus influenza (NTHI); settings: wild-type mice after 6 months of chronic exposure to cigarette smoke
# Description: C57BL/6J mice were housed under controlled conditions for temperature and humidity, using a 12-hour light/dark cycle. At 8 weeks of age, mice were exposed to CS for (2.5 h/day for 5 days/week) for 1 week or 6 months using a machine that produces cigarette smoke (TE-10, Teague Enterprises) and reference cigarettes (2R4F) with a total suspended particle concentration of 250 mg/m^3 as previously described (T. E. Sussan et al., Proc Natl Acad Sci USA, (Dec. 22, 2008)). Following exposure to CS, mice were inoculated with PA or NTHI at a dose of 10^3 CFU in 50 μl of PBS intranasally. For sulforaphane administration (0.5 mg/mouse of R, S-sulforaphane in PBS), a nebulizer (Aerogen, Inc., Galway, Ireland) designed specifically for small animals was used.
# BAL fluid analysis and cell counts with differential staining were carried out as described previously (T. Rangasamy et al., J Clin Invest 114, 1248 (November, 2004)). For analyzing bacterial colonization in lungs, 100 μl of BAL fluid were diluted serially in sterile 0.9% NaCl and aseptically plated and cultured on appropriate (blood [PA] or chocolate [NTHI]) agar plates. After 24 h, the number of CFU was counted.
# [2] = test system: secretory leukocyte protease inhibitor (SLPI); settings: alveolar macrophages of patients with COPD, treated with or without sulforaphane
# Description: (§3) Human alveolar macrophages were purified from individual BAL samples by centrifugation and seeded onto 6-well tissue culture plates. After incubation for 2 h, non-adherent cells were removed and the adherent cells were incubated with R, S-sulforaphane (5 μM; LKT Laboratories, Inc., St. Paul, Minn.) and or DMSO in RPMI 1640 culture medium with 10% FBS and 1% penicillin-streptomycin (Invitrogen, Carlsbad, Calif.). After 16-20 h, adherent cells were scraped, suspended in RPMI 1640 culture media and plated onto 96-well tissue culture plates for bacterial phagocytosis and clearance assays. […] For MARCO antibody-depletion, alveolar macrophages were incubated with human anti-MARCO antibody (1 μg/ml; (Hycult, Uden, The Netherlands) for 4 hours prior to bacterial challenge.
# Pseudomonas aeruginosa = test: Clearance of bacteria in vitro by alveolar macrophages (PA); type: cell-based
# Description: as §3
# Sputum isolates of nontypeable H. influenzae and P. aeruginosa obtained from patients with COPD at the Department of Veterans Affairs, Western New York Healthcare System were used (S. Sethi, N. Evans, B. J. Grant, T. F. Murphy, N Engl J Med 347, 465 (Aug. 15, 2002); C. S. Berenson, M. A. Garlipp, L. J. Grove, J. Maloney, S. Sethi, J Infect Dis 194, 1375 (Nov. 15, 2006); T. F. Murphy et al., Am J Respir Crit Care Med 177, 853 (Apr. 15, 2008); T. F. Murphy, A. L. Brauer, A. T. Schiffmacher, S. Sethi, Am J Respir Crit Care Med 170, 266 (Aug. 1, 2004)). For bacterial growth, H. influenzae was cultured on chocolate agar or grown in brain heart infusion broth supplemented with 20 μg/mlNAD and 10 μg/ml hemin at 35° C. in 5% CO2. P. aeruginosa was cultured on LB agar plates or in LB broth at 37° C. For FITC-labeling of bacteria, heat inactivated PA and NTHI (10^9 CFU/ml) were resuspended in 1 ml of labeling buffer (0.1 M NaHCO3, pH 9.2) and incubated with fluorescein isothiocyanate (FITC) (Sigma) under constant stiffing in the dark at room temperature for 1 h. Finally, bacteria were washed three times with PBS and dialyzed overnight against PBS. FITC-labeled bacteria were resuspended with PBS at a concentration of 10^9/ml.
# After treatment, macrophages (10^5 cells) were incubated with bacteria (PA or NTHI) for 4 h. Subsequently, 100 μL of cell free culture medium was aseptically plated and cultured on tryptose blood and or chocolate agar plates at 37° C. The number of bacterial colonies was counted after 24 h.
smiles,measurement,setting,value
C[S+]([O-])CCCCN=C=S (centres unmarked) [sulforaphane],expression of the IL-8 gene,IL-8 gene,concomitant reduction
same,GSH levels,GSH,significantly elevated
same,enzymatic activity of total HDAC,HDAC,significantly elevated
same,"DEX sensitivity (histone acetylation on IL-8 promoter, IL-8 expression)",IL-8; in the presence of buthionine sulfoximine (BSO),failed to improve DEX sensitivity
same,IL-8 levels,"IL-8; sulforaphane alone, basally and after LPS treatment",significantly reduced IL-8 levels
same,DEX's inhibitory effect on basal and LPS-induced IL-8 secretion (fold reduction),"IL-8; sulforaphane treatment then DEX, P<0.01, N=25 patients",5 fold
same,bacterial colonization (NTHI) in the lungs,[1],inhibited bacterial colonization
same,SLPI levels in cell free media,[2],greater levels of SLPI
same,clearance of Pseudomonas aeruginosa (decrease in CFU in culture medium),"Pseudomonas aeruginosa; COPD alveolar macrophages, compared to vehicle, 4 h with bacteria",40-95%
same,bacterial clearance,Pseudomonas aeruginosa; alveolar macrophages from non-COPD subjects,significantly enhanced bacterial clearance
same,bactericidal activity towards Pseudomonas aeruginosa,Pseudomonas aeruginosa; cell-free medium with sulforaphane alone,no bactericidal activity
